This is an account of results in US20130219529A1, “PROBE FOR A HAIR CELL, AND LABELLING METHOD FOR A HAIR CELL USING THE PROBE FOR A HAIR CELL” (CANON KABUSHIKI KAISHA, priority 2008, published 2013).

Series [1] is described as follows: Excitation and fluorescence emission wavelength measured with fluorescence spectrophotometer. The settings on record: aqueous solution, 10 mg/mL DMSO solution diluted 500-fold with purified water. The format is physicochemical.
In series [2] the test system is hair cell (neuromast) of Zebrafish. The series is described as follows: Staining of hair cell (neuromast) of Zebrafish juveniles with probe, fluorescence stereomicroscope image visually evaluated. The settings on record: dye concentration 250 μg/mL, 1 hour, Zebrafish juveniles Day 7 after fertilization. Type of series: in vivo.
For series [3] the test system is unchanged. The description is as above. Type of series: in vivo. The arrangement: Fluorescence intensity: key to the marks not given beside the values. The conditions noted are these: dye concentration 1 μg/mL, 1 hour, Zebrafish juveniles Day 7 after fertilization. As to the method: A staining compound (1) was dissolved in DMSO to prepare a stock solution at a concentration of 1 mg/mL. The stock solution was diluted with distilled water to prepare a hair cell staining solution 1 having a dye concentration of 1 μg/mL. Further, Egg Water was prepared by dissolving artificial seawater SEALIFE (manufactured by Marinetech Co., Ltd.) in distilled water at a concentration of 60 mg/L. Five juveniles (embryos on Day 7 after fertilization) of Zebrafish were placed into any one of wells of a 24-well multiwell plate together with feeding water. The feeding water was discharged and 1 mL of the hair cell staining solution 1 was added. After the whole had been left to stand for 1 hour, the hair cell staining solution 1 in the well was discharged and replaced by 1 mL of fresh Egg Water. In addition, such an operation that Egg Water was discharged and replaced by 1 mL of fresh Egg Water was repeated twice. One of the juveniles was taken out from the well onto a dish, the motion of the juvenile was restricted by addition of methylcellulose, and a fluorescence image was captured with a fluorescence stereomicroscope. MZ16FA manufactured by Leica Microsystems K.K. was used as a stereoscopic microscope.
An image pickup unit (a digital camera DP72 for a microscope manufactured by Olympus Corporation) of a fluorescence stereomicroscope was remodeled by removing an IR cut filter so as to capture a fluorescence image in a near-infrared wavelength region.

For series [4], the system named is juvenile neuromast (hair cell) of Zebrafish. The series is described as follows: Change in staining intensity of neuromast due to morpholino knockdown of target genes (SLC25A12, TRPC2). Type of series: in vivo. The settings on record: for Increase of staining properties by knockdown of SLC25A12 and TRPC2 genes: each of SLC25A12 and TRPC2 knockdown; for Ratio of staining intensity (KD/control): juveniles Day 7. As to the method: In order to knockdown a specific gene, a mixed solution containing a morpholino antisense oligonucleotide (MO) was prepared. MO was synthesized by using GeneTools, LLC (Philomath, Oreg.). A morpholino antisense oligonucleotide (atgMO) designed so that the translation from a start codon to a protein would be inhibited was dissolved in distilled water to prepare a MO mixed solution having the following composition.
A fertilized embryo within 1 hour after fertilization (before a second cleavage period) of Zebrafish was microinjected with the MO mixed solution. A capillary made of glass (inner diameter: 0.6 mm) having a sharp extremity obtained by extending and cutting a glass tube with a PC-10 puller (manufactured by Narishige Co., Ltd.) and grinding the cross section with a EG-400 grinder (manufactured by Narishige Co., Ltd.) was used for the microinjection. Feeding water and the fertilized embryo were placed into a 10-cm dish in which 1% agarose had been bedded, and the microinjection was performed under a stereoscopic microscope. During injection, one of a manual injector IM-9A (manufactured by Narishige Co., Ltd.) and an electrical microinjector IM-30 (manufactured by Narishige Co., Ltd.) was connected to the capillary made of glass, to thereby perform infusion with pressure. The infusion amount of MO was set to 1 to 10 ng per fertilized embryo.
Because the MO mixed solution is supplemented with a dye (0.005% phenol red), the success or failure of the infusion of the MO mixed solution may be confirmed with the naked eye. Further, because the MO mixed solution is supplemented with a fluorescent protein expression vector (EGFP), on Day 3 after infusion, the success or failure of the microinjection can be confirmed after the fertilized embryo has hatched (a sample in which a signal derived from the fluorescent protein was observed also retains MO in Zebrafish).
Juveniles (embryos on Day 7 after fertilization) of Zebrafish were stained in the same manner as that in Example 1, and a change in staining condition of the hair cell was measured.
The compound (54) was selected as the probe for a hair cell and compared with FM1-43. Further, SLC25A12 and TRPC2 were selected as target genes. The staining intensity of a juvenile neuromast having unknockdown genes was used as a control, and compared with the staining intensity of a juvenile neuromast in which each of the target genes has been knockdown by representing a fluorescence image obtained with a stereoscopic microscope in numerical values.

In series [5] the test system is neuromast (hair cell) of Zebrafish. Nature of the series: Staining intensity of neuromast at different concentrations of staining agent (fluorescence intensity per unit intake time). The format is in vivo. The conditions noted are these: 10, 30 and 100 ng/mL staining solutions, intensity/msec. As to the method:
The compounds (43), (54), and (65) were selected as probes for a hair cell, and compared with FM1-43. Three kinds of staining solutions containing those staining agents were prepared at concentrations of 10 ng/mL, 30 ng/mL, and 100 ng/mL. Juveniles of (embryos on Day 7 after fertilization) of Zebrafish were stained in the same manner as that in Example 1. When a fluorescence image is acquired with a fluorescence stereomicroscope, the fluorescence intensity per unit intake time (intensity/msec) was calculated by changing an intake time (exposure time) and dividing the fluorescence intensity (Relative Fluorescence Unit, RFU) of a neuromast of the obtained fluorescence image by the intake time.

For the next series, the system named is hair cell of Zebrafish. The settings on record: 5 μM chemical substance, 24 hours exposure, Zebrafish Day 7 after fertilization, stained with staining compound 54. As to the method:
Zebrafish after exposure was washed with distilled water. The same operation as that in Example 1 was performed except that the staining compound (1) used in Example 1 was changed to a staining compound (54).

SMILES strings stand for the structures.

In series [1], `CC[n+]1ccccc1C=Cc1ccc(N(C)C)cc1.[I-]` [DASPEI, 2-(4-(dimethylamino)styryl)-N-ethylpyridinium iodide, reference compound] displayed an Excitation wavelength λex of 461 nm and a Fluorescence emission wavelength λem of 589 nm. Moreover, the Fluorescence intensity result in series [2] is recorded as “+”.
Turning to `CCCCN(CCCC)c1ccc(/C=C/c2cc[n+](CCC[N+](CC)(CC)CC)cc2)cc1.[Br-].[Br-]` [FM1-43, reference compound], in series [3], the Fluorescence intensity result is given as “+++”. Besides, in series [1], the Excitation wavelength λex worked out at 503 nm. In addition, the Fluorescence emission wavelength λem in series [1] turned out to be 627 nm. For the same compound, the “Increase of staining properties by knockdown of SLC25A12 and TRPC2 genes” value in series [4] is given as “about 30%”. The “Ratio of staining intensity (KD/control)” value came out at 1.36 in series [4] (target gene SLC25A12 knockdown) and 1.35 in series [4] (target gene TRPC2 knockdown).
For `CC1(C)C(/C=C/C=C/C=C/C=C2\N(CCCCS(=O)(=O)O)c3ccc4ccccc4c3C2(C)C)=[N+](CCCCS(=O)(=O)[O-])c2ccc3ccccc3c21` [ICG, indocyanine green, reference compound], in series [1], the Excitation wavelength λex was 784 nm and the Fluorescence emission wavelength λem stood at 811 nm. Further, in series [2], the Fluorescence intensity result was “No stained” and the Staining pattern entry is listed as “No stained”.
As to `CN1/C(=C\C=C\C2=[N+](C)c3ccccc3C2(C)C)C(C)(C)c2ccccc21` [Staining compound 43], the “Staining intensity of the hair cell compared with FM1-43 (FIG. 4)” value in series [5] is given as “higher”.
On to `CC/N=c1\cc2oc3cc(NCC)c(C)cc3c(-c3ccccc3C(=O)OCC)c-2cc1C` [Staining compound 54], for which the “Increase of staining properties by knockdown of SLC25A12 and TRPC2 genes” value in series [4] was “about 2 fold”. Besides, the “Ratio of staining intensity (KD/control)” value in series [4] (target gene SLC25A12 knockdown) worked out at 2.06; in series [4] (target gene TRPC2 knockdown), 2.18. For the same compound, the “Staining intensity of the hair cell compared with FM1-43 (FIG. 4)” value in series [5] is on record as “higher”.
As to `CCN1/C(=C\C=C\c2sc3ccccc3[n+]2CC)Sc2ccccc21` [Staining compound 65], the “Staining intensity of the hair cell compared with FM1-43 (FIG. 4)” value in series [5] is “higher”.
For `NCCS(=O)(=O)O` [Taurine, taurine], the “Change in staining intensity” value in the series on hair cell of Zebrafish is “No change”.
